Read-outs that look alike come from different tables or passages of the source.
Tests used:
NCI-H69 SCLC cell line = assay: Antiproliferative activity, NCI-H69; format: cell-based, human; conditions: 3D assay; Calcein AM
[1] = test system: LU2514 SCLC patient-derived xenograft; assay: Efficacy in LU2514 HuPrime SCLC PDX model; format: in vivo, mice; conditions: Day 28
Method: Tumor growth inhibition analysis was performed on Day 28 post treatment, the last day of dosing.
In both studies with LU2514 animal model.

[2] = test system: LXFS 2156 SCLC patient-derived xenograft; assay: Efficacy in LXFS 2156 SCLC PDX model; format: in vivo, mice; conditions: 5 mg base/kg orally QD×23
MS-1 hMCC xenograft = assay: Efficacy in MS-1 hMCC xenograft (NSG mice); format: in vivo; conditions: 5 mg/kg PO 5 on/2 off; head prints Day-15, TGI analysis on Day 36
[3] = test system: ST18 and FREM2 expression in MS-1 tumors; assay: In vivo xenograft dose-response of PD biomarker gene expression, MS-1; parameters: species or system mice; conditions: 1, 2.5, or 5 mg/kg PO BID ×4.5; tumors 4 h after last dose
Source text: Female NSG mice bearing palpable hMCC MKL-1 and MS-1 tumors were randomized into four groups of three mice each. […] The fourth group was orally administered vehicle as a control on the BID schedule. Four hours after the last dosing, tumors were collected into RNA later and stored frozen.
Total RNA was eluted in RNase-free water and analyzed by qRT-PCR.

[4] = test system: H3K4me2 at ST18 and FREM2 gene loci in MKL-1 cells; assay: ChIP-seq LSD1 occupancy and H3K4me2 status, MKL-1; format: cell-based, human; conditions: 100 nM, 3 days
[5] = test system: LXFS 573 SCLC patient-derived xenograft; format: in vivo
[6] = Pharmacokinetics after single IV and oral dose, Sprague Dawley rats; format: in vivo; conditions: Rat, female
Method: AUClast=area under the plasma concentration-time curve from time zero to time of last measurable concentration; Cmax=maximum plasma concentration; F=oral bioavailability; hr=hour, PK=pharmacokinetic; SD=standard deviation; t1/2 z=apparent half-life of the terminal phase of the concentration-time curve; tmax=time of Cmax. In mouse, PK parameters were determined using composite plasma samples obtained from n=3animals/time point. In other species, PK parameters are from n=3 animals and values shown are mean and SD (in parentheses).

[7] = Excretion in bile duct cannulated rats (IV); format: in vivo; conditions: 24-hour period post dosing
[8] = 4-week toxicity study (no recovery period) in dogs (QW/Q2W); format: in vivo; conditions: for AUC0-96 / Cmax: Dogs
Source text: All animals survived to the terminal sacrifice.

[9] = test system: Salmonella typhimurium TA98 and TA100 strains; assay: Bacterial reverse mutation assay; format: cell-based; conditions: up to 500 μg/mL; in presence and absence of S9
[10] = test system: LXFS 1129 SCLC patient-derived xenograft
[11] = test system: GA0087 gastric NEC patient-derived xenograft; assay: Efficacy in GA0087 gastric neuroendocrine carcinoma PDX model; conditions: for Median Tumor Volumes Day 46: head prints Day 46, title Day 53
[12] = 4-week oral gavage toxicity study with 4-week recovery in dogs (QW/BIW); conditions: for mean AUC0-168 / mean Cmax: 0.375 mg base/kg/dose QW; for Steady state Cmax: 0.75 mg base/kg/dose QW
[13] = Compound A 1 mg/kg in combination with etoposide 24 mg/kg
[14] = Day 1, 0.125 mg base/kg/dose oral QW, Sexes Combined
[15] = Day 1, 0.25 mg base/kg/dose oral QW, M
[16] = Day 1, 0.5 mg base/kg/dose oral Q2W, M
[17] = Day 15, 0.125 mg base/kg/dose oral QW, F
[18] = Day 15, 0.125 mg base/kg/dose oral QW, M
[19] = Day 15, 0.125 mg base/kg/dose oral QW, Sexes Combined
[20] = 0.375 mg base/kg/dose BIW, males, Day 22
[21] = Dogs, Day 1, 0.75 mg base/kg/dose oral once weekly, M
[22] = Dogs, Day 1, 1.5 mg base/kg/dose oral once weekly, F
[23] = Dogs, Day 1, 1.5 mg base/kg/dose oral once weekly, M
[24] = Dogs, Day 22, 0.375 mg base/kg/dose oral once weekly, F
[25] = Dogs, Day 22, 0.375 mg base/kg/dose oral once weekly, M
[26] = Dogs, Day 22, 0.375 mg base/kg/dose oral twice weekly, M
[27] = Dogs, Day 22, 0.75 mg base/kg/dose oral once weekly, F
[28] = Dogs, Day 22, 0.75 mg base/kg/dose oral once weekly, M
[29] = QW or BIW schedule, not determined

In the case of `COc1ccc(-c2c(-c3ccc(C#N)c(F)c3)nc(N3CCC(N)CC3)n(C)c2=O)cc1F` [Compound A], the IC50 (NCI-H69 SCLC cell line) is reported as 7 µM, the “% TGI” value ([1]; 5 mg base/kg PO QD × 28) is reported as 43% and the “% TGI” value ([1]; 10 mg base/kg PO QD × 28) is reported as 61%. The TGI [2] was −7%, the “Median Tumor Volumes Day-15” value (MS-1 hMCC xenograft) was 129 mm^3 and the “ST18 and FREM2 change in gene expression in vivo” value [3] was no less than 2 fold. The “H3K4me2 at the LSD1 binding site of FREM2 gene” value [4] was “increased H3K4me2”, the “H3K4me2 at the LSD1 binding site of ST18 gene” value [4] was “increased H3K4me2” and the “% TGD” value [5, 13] was 38%. For the same compound, the TGD [5, 13] was 16 days, the “median TTE” value [5, 13] was 59 days and the “survivors on Day 133” value ([5]; Compound A 1 mg/kg in combination with etoposide 24 mg/kg, of eight) was 1. For the same compound, the TGD ([5]; Compound A 2.5 mg/kg in combination with etoposide 24 mg/kg) was 79 days, the “survivors on Day 133” value ([5]; Compound A 2.5 mg/kg in combination with etoposide 24 mg/kg, of eight) was 3 and the TGD ([5]; Compound A 5 mg/kg in combination with etoposide 24 mg/kg) was 91 days. The “survivors on Day 133” value ([5]; Compound A 5 mg/kg in combination with etoposide 24 mg/kg, of eight) was 8, the “study survivors on Day 133” value ([5]; Compound A monotherapy 5 mg/kg, of eight) was “seven” and the “AUC∞” value ([6]; single IV 5 mg base/kg) was 733 ng·h/mL. The CL ([6]; single IV 5 mg base/kg) was 115 mL/min/kg, the Vss ([6]; single IV 5 mg base/kg) was 0.2625 L/kg and the “t1/2,z” value ([6]; single IV 5 mg base/kg) was 3.6 h. The “% F” value ([6]; single oral 5 mg base/kg) was 33%, the AUClast ([6]; single oral 5 mg base/kg) was 222 ng·h/mL and the Cmax ([6]; single oral 5 mg base/kg) was 47 ng/mL. For the same compound, the “t1/2,z” value ([6]; single oral 5 mg base/kg) was 3.0 h, the tmax ([6]; single oral 5 mg base/kg) was 2.0 h and the “% F” value ([6]; single oral 15 mg base/kg) was 28%. The AUClast ([6]; single oral 15 mg base/kg) was 570 ng·h/mL, the Cmax ([6]; single oral 15 mg base/kg) was 123 ng/mL and the “t1/2,z” value ([6]; single oral 15 mg base/kg) was 2.9 h. For the same compound, the tmax ([6]; single oral 15 mg base/kg) was 2.0 h, the “% F” value ([6]; single oral 50 mg base/kg) was 74% and the AUClast ([6]; single oral 50 mg base/kg) was 4652 ng·h/mL. The Cmax ([6]; single oral 50 mg base/kg) was 621 ng/mL, the “t1/2,z” value ([6]; single oral 50 mg base/kg) was 3.0 h and the tmax ([6]; single oral 50 mg base/kg) was 6.0 h. The “dose excreted intact in urine” value [7] was 8.5 % of dose, the “combined Day 15 mean AUC” value ([8]; 0.125 mg base/kg/dose QW) was 127 ng·h/mL and the “combined Day 15 mean Cmax” value ([8]; 0.125 mg base/kg/dose QW) was 5.26 ng/mL. The “combined Day 15 mean AUC” value ([8]; 0.25 mg base/kg/dose QW) was 287 ng·h/mL, the “combined Day 15 mean Cmax” value ([8]; 0.25 mg base/kg/dose QW) was 11.0 ng/mL and the “combined Day 15 mean AUC” value ([8]; 0.5 mg base/kg/dose Q2W) was 636 ng·h/mL. For the same compound, the “combined Day 15 mean Cmax” value ([8]; 0.5 mg base/kg/dose Q2W) was 22.0 ng/mL, the AUC0-96 ([8]; Day 1, 0.125 mg base/kg/dose oral QW, F) was 127 ng·h/mL and the AUC0-96 [8, 14] was 120 ng·h/mL. It also gave a Cmax [8, 14] of 5.79 ng/mL, an AUC0-96 [8, 15] of 335 ng·h/mL and a Cmax [8, 15] of 11.9 ng/mL. For the same compound, the Cmax ([8]; Day 1, 0.25 mg base/kg/dose oral QW, Sexes Combined) was 12.0 ng/mL, the Cmax ([8]; Day 1, 0.5 mg base/kg/dose oral Q2W, F) was 26.6 ng/mL and the AUC0-96 [8, 16] was 762 ng·h/mL. The Cmax [8, 16] was 24.0 ng/mL, the Cmax ([8]; Day 1, 0.5 mg base/kg/dose oral Q2W, Sexes Combined) was 25.3 ng/mL and the AUC0-96 [8, 17] was 141 ng·h/mL. The Cmax [8, 17] was 5.54 ng/mL, the AUC0-96 [8, 18] was 107 ng·h/mL and the Cmax [8, 18] was 4.89 ng/mL. It also gave an AUC0-96 [8, 19] of 127 ng·h/mL, a Cmax [8, 19] of 5.26 ng/mL and a Cmax ([8]; Day 15, 0.25 mg base/kg/dose oral QW, Sexes Combined) of 11.0 ng/mL. For the same compound, the Cmax ([8]; Day 15, 0.5 mg base/kg/dose oral Q2W, Sexes Combined) was 22.0 ng/mL, the treatment-related adverse finding ([8]; single female, 0.25 mg base/kg/dose QW) was “Moderate acute inflammation in the ileum and marked acute inflammation in the cecum” and the mutagenicity [9] was “negative for mutagenicity”. The AUC0-24 ([10]; 1.5 mg base/kg) was 243 ng·h/mL, the AUC0-24 ([10]; 5 mg base/kg) was 1,262 ng·hr/mL and the “mean body weight losses” value ([10]; mouse, in vivo) was less than 6%. The “Median Tumor Volumes Day 46” value ([11]; 1.5 mg base/kg PO QD × 53) was 706.4 mm^3, the “Median Tumor Volumes Diff.” value ([11]; 5 mg base/kg PO QD × 53) was 836.3 mm^3 and the “Median Tumor Volumes Day 46” value ([11]; 5 mg base/kg PO QD × 53) was 673.2 mm^3. For the same compound, the Cmax ([12]; 0.375 mg base/kg/dose BIW, females, Day 22) was 19.0 ng/mL, the Cmax [12, 20] was 17.7 ng/mL and the “mean AUC0-72” value [12, 20] was 307 ng·h/mL. The “mean AUC0-168” value ([12]; females, Day 22) was 269 ng·h/mL, the “mean Cmax” value ([12]; females, Day 22) was 15.5 ng/mL and the “mean AUC0-168” value ([12]; males, Day 22) was 384 ng·h/mL. For the same compound, the “mean Cmax” value ([12]; males, Day 22) was 21.9 ng/mL, the “Steady state Cmax” value ([12]; females) was 40.8 ng/mL and the “Steady state Cmax” value ([12]; males) was 36.2 ng/mL. It also gave an AUC0-168 ([12]; Dogs, Day 1, 0.375 mg base/kg/dose oral once weekly, M) of 503 ng·h/mL, an AUC0-72 ([12]; Dogs, Day 1, 0.375 mg base/kg/dose oral twice weekly, M) of 420 ng·h/mL and an AUC0-168 ([12]; Dogs, Day 1, 0.75 mg base/kg/dose oral once weekly, F) of 1180 ng·h/mL. For the same compound, the AUC0-168 [12, 21] was 955 ng·h/mL, the Cmax [12, 21] was 34 ng/mL and the AUC0-168 [12, 22] was 2680 ng·h/mL. It also gave a Cmax [12, 22] of 80.0 ng/mL, an AUC0-168 [12, 23] of 2530 ng·h/mL and a Cmax [12, 23] of 90.6 ng/mL. It also gave an AUC0-168 [12, 24] of 269 ng·h/mL, a Cmax [12, 24] of 15.5 ng/mL and an AUC0-168 [12, 25] of 384 ng·h/mL. It also gave a Cmax [12, 25] of 21.9 ng/mL, a Cmax ([12]; Dogs, Day 22, 0.375 mg base/kg/dose oral twice weekly, F) of 19.0 ng/mL and an AUC0-72 [12, 26] of 307 ng·h/mL. The Cmax [12, 26] was 17.7 ng/mL, the AUC0-168 [12, 27] was 719 ng·h/mL and the Cmax [12, 27] was 40.8 ng/mL. The AUC0-168 [12, 28] was 645 ng·h/mL, the Cmax [12, 28] was 36.2 ng/mL and the HNSTD [12, 29] was less than 0.375 mg base/kg/dose. For the same compound, the NOAEL [12, 29] was less than 0.375 mg base/kg/dose, the moribund euthanasia ([12]; weekly oral 0.375-1.5 mg base/kg/dose, between study Days 13 and 23) was 11 animals and the primary toxicities ([12]; ≥0.375 mg base/kg/dose, QW or BIW) was “mucosal ulceration, acute and/or subacute inflammation, and mucosal epithelial atrophy ofGI tract tissues”.

From US10960005B2, “Treatment of relapsed and/or refractory solid tumors and non-hodgkin's lymphomas” (CELGENE QUANTICEL RESEARCH, INC., priority 2016, dated 2021)
